Experimental findings from patent US20220370486A1, “COMBINATION TREATMENT OF SYSTEMIC FUNGAL INFECTIONS” (The Board of Trustees of the University of Illinois, priority 2019, published 2022) are described below.

Data set [1] concerns primary hREC. Put plainly: Toxicity to primary hREC. Type of data set: cell-based, human. From the text:
(§1) This key discovery opened a path to the rational development of a non-toxic AmB variant. To probe its predicted role in sterol binding, the hydroxyl group was synthetically deleted at the C2′ position on the mycosamine appendage.
(§2) In each case, C2′epiAmB is non-toxic to human red blood cells, primary hREC, mice, and rats up to the highest dose tested.

Data set [2] relates to yeast. Put plainly: Activity against yeast. Type of data set: cell-based.
Excerpt: as §1

Data set [3] in a line: Isothermal titration calorimetry (ITC) sterol binding.
Excerpt: as §1
A practical 11-step synthesis of C2′epiAmB using a frontier site-selective acylation method was developed. Wilcock, B. C. et al., Nat Chem 2012, 4 (12), 996-1003; Uno, B. E. A synthesis enabled understanding of Amphotericin B leading to derivatives with improved therapeutic indices. University of Illinois at Urbana-Champaign, 2014. The sterol binding and cell killing activities was then determined.
Background: Isothermal titration calorimetry measures the heat released or taken up as one component is titrated into another.

In data set [4] the test system is human red blood cells. The experiment in a line: Toxicity to human red blood cells. Type of data set: cell-based.
Excerpt: as §1, §2

Each structure is given as a SMILES string.

`CC1C=CC=CC=CC=CC=CC=CC=CC(OC2CC(N)C(O)C(C)O2)CC2OC(O)(CC(O)CC(O)C(O)CCC(O)CC(O)CC(=O)OC(C)C(C)C1O)CC(O)C2C(=O)O` (centres unmarked) [C2′deOAmB]: in data set [1], the “toxicity to primary hREC” value is reported as “nontoxic”. For the same compound, the activity against yeast result in data set [2] was “retained good activity”. For the same compound, the “binding of ergosterol by ITC” value in data set [3] is recorded as “bind ergosterol”. In addition, in data set [3] (within the detection limits of ITC), the “binding of cholesterol by ITC” value is given as “not cholesterol”. The “toxicity to human red blood cells” value in data set [4] was “nontoxic”.
